Results from patent publication US7585834B2, “Transporters comprising spaced arginine moieties” (The Board of Trustees of the Leland Stanford Junior …, priority 2001, dated 2009).
Ahx = NCCCCCC(=O)O; Fl = fluorescein

test system: human T cell line, Jurkat; test: cellular uptake assay of fluorescently labeled peptides (flow cytometry, mean fluorescent signal); assay type: cell-based; settings: FIG. 1; single amino acid spacing without side chains (glycine, abu, aca); Jurkat cells
Protocol: The fluorescently labeled peptides were dissolved in PBS, pH 7.2, and their concentrations were determined by absorption of fluorescein at 490 nm (ε=67,000). The human T cell line, Jurkat, grown in 10% fetal calf serum in DMEM, was used for all the cellular uptake experiments. Varying amounts of the peptides were added to 3×10^5 cells in a total of 200λ, in wells of microtiter plates, and incubated for varying periods of time, ranging from three to five minutes. The cells were spun, washed three times with cold PBS, incubated with 0.05% trypsin/0.53 mM EDTA (Gibco, Grand Island, N.Y.) at 37° C. for five minutes, washed with PBS, and resuspended in PBS containing 0.1% propidium iodide. The cells were analyzed either using confocal microscopy or fluorescent flow cytometry (FACScan, Becton Dickinson, Milpitas, Calif.). Cells staining with propidium iodide were excluded from the analysis. Data presented is the mean fluorescent signal for the 5000 cells collected. To prevent cellular uptake of the peptides, the cells were treated with sodium azide (1.0%) for 25 minutes prior to exposure to the peptides.

Compound	cellular uptake of spaced arginine transport moieties tethered to fluorescein, relative to R7 homopolymer
Fl-aca-RabuRRabuRRabuRR-CONH2 [Seq. I.D. No. 5]	ε-aminocaproic acid>γ-aminobutyric acid>glycine
Fl-aca-RGRRGRRGRR-CONH2 [Seq. I.D. No. 4]	ε-aminocaproic acid>γ-aminobutyric acid>glycine
Fl-aca-RacaRRacaRRacaRR-CONH2 [Seq. I.D. No. 6]	ε-aminocaproic acid>γ-aminobutyric acid>glycine

same assay, conditions: FIG. 2; spacing by naturally occurring amino acids; fluorescein conjugates; Jurkat cells

Compound	cellular uptake relative to the homopolymer R7 having no spacing
N[C@@H](Cc1c[nH]cn1)C(=O)O [Seq. I.D. No. 11]	increase in cellular uptake was found
Fl-aca-RPRRPRRPRR-CONH2 [Seq. I.D. No. 17]	increase in cellular uptake was found
Fl-aca-RARRARRARR-CONH2 [Seq. I.D. No. 7]	increase in cellular uptake was found
Fl-aca-RVRRVRRVRR-CONH2 [Seq. I.D. No. 21]	increase in cellular uptake was found
N[C@@H](CC(=O)O)C(=O)O [Seq. I.D. No. 8]	Reduced, or comparable uptake
Fl-aca-RGRRGRRGRR-CONH2 [Seq. I.D. No. 4]	increase in cellular uptake was found
N[C@@H](CCC(=O)O)C(=O)O [Seq. I.D. No. 9]	Reduced, or comparable uptake
C[C@@H](O)[C@H](N)C(=O)O [Seq. I.D. No. 20]	increase in cellular uptake was found
Fl-aca-RMRRMRRMRR-CONH2 [Seq. I.D. No. 15]	increase in cellular uptake was found
NC(=O)CC[C@H](N)C(=O)O [Seq. I.D. No. 18]	increase in cellular uptake was found
CC[C@H](C)[C@H](N)C(=O)O [Seq. I.D. No. 12]	increase in cellular uptake was found
Fl-aca-RNRRNRRNRR-CONH2 [Seq. I.D. No. 16]	increase in cellular uptake was found
Fl-aca-RFRRFRRFRR-CONH2 ({Fl-Ahx}-RFRRFRRFRR-NH2) [Seq. I.D. No. 10]	increase in cellular uptake was found
Fl-aca-RSRRSRRSRR-CONH2 [Seq. I.D. No. 19]	increase in cellular uptake was found
NCCCC[C@H](N)C(=O)O [Seq. I.D. No. 13]	increase in cellular uptake was found
N[C@@H](Cc1ccc(O)cc1)C(=O)O [Seq. I.D. No. 22]	Reduced, or comparable uptake

same assay, conditions: FIG. 4; 6.25 μM; Jurkat cells

Compound	cellular uptake at the lower concentration
Fl-aca-R7CONH2 [Seq. I.D. No. 2, reference compound]	begins to drop off

same assay, conditions: FIG. 6; compared with (RX)6R, X = aca, gly-gly or gly; Jurkat cells

Compound	uptake (mean fluorescence) of (RX)6R transport oligomers versus homopolymers of D-arginine
Fl-aca-r13-CONH2 [Seq. I.D. No. 28, reference compound]	significantly less effective in entering the cells
Fl-aca-r19-CONH2 [Seq. I.D. No. 29, reference compound]	significantly less effective in entering the cells
